Patent US4855128A, “Saccharide inhibition of dental plaque” (priority 1988, dated 1989)
Where two headings read alike, the source gives them in different places.

Test system: A. viscosus Tl4V-S. sanguis 34 coaggregation
Experiment: Coaggregation assay: inhibition of A. viscosus Tl4V-S. sanguis 34 coaggregation
Format: cell-based
Conditions: for Concentration to effect 50% inhibition of coaggregation: concentration in % (weight/volume basis); for Inhibition of coaggregation (in words): qualitative; for IC50: read-out: Concentration to effect 50% inhibition of coaggregation; for Rebound of coaggregation on increasing concentration: at concentrations above the 50% inhibition concentration
Experimental: This Example describes an assay for determining the inhibition of coaggregation by various agents according to the invention and the results obtained thereby.
Streptococcus sanguis strain 34 (originally derived from human dental plaque), and Actinomyces viscosus Tl4V were grown in a medium containing the dialyzable portion of Trypticase and Yeast Extract, supplemented with salts and a carbon source, as follows: A concentrated stock solution (20×, to make 10 liters of growth medium) containing Trypticase Peptone (BBL, 170 grams) and Yeast Extract (40 grams) as prepared in a liter of distilled water. This solution was subsequently ultrafiltered in an Amicon model DC-2 hollow fiber ultrafiltration cell, using an HlP10-20 hollow fiber cartridge (molecular weight cut off of 10,000 daltons), and the filtrate (that material of <10,000 daltons molecular weight) saved. The material was concentrated to a final volume of approximately 100 ml, and then reconstituted to one liter, after which the procedure was repeated for a total of three cycles, saving the filtrates at each step. The filtrates were collected into a vessel chilled on ice, combined, and the total volume measured. This stock solution was distributed in aliquots sufficient to make one liter of medium, and stored at -20° C. until used.
To prepare the growth medium, the appropriate volume of the 10× stock Trypticase-Yeast Extract stock solution was thawed, and to it added (in grams per liter): NaCl, 5, and K2 HPO4, 2.5, and the volume adjusted to 1 liter with distilled water. The medium was sterilized by autoclaving. Where indicated, glucose was added as a carbon source to give a final concentration of 0.2%. Initially, this was done by aseptically adding filter-sterilized glucose solutions to the autoclaved medium. For later experiments, glucose was added to the growth medium prior to sterilization.
Streptococci were grown in medium containing 0.2% glucose. Starter cultures were prepared by inoculation from a frozen stock culture, and incubated overnight at 37° C. under aerobic (not anaerobic) conditions. This starter culture was used as a 0.5-1.0% inoculum to inoculate larger quantities of medium (100 ml-1 liter), which were subsequently incubated for 16 hours at 37° C. Growth conditions were similar for the actinomycete, except that they were grown under an anaerobic environment (10% hydrogen-5% carbon dioxide, and 85% nitrogen). The starter culture was incubated for 24-48 hours, but the larger cultures required 48 hours incubation.
After growth, the cells were collected by centrifugation (10,000 x g, 15 minutes, 4° C.) and washed three times in PBS (phosphate-buffered saline, 0.025 M, pH 8.0 containing 1.46g NaCl per liter). The cells were then suspended in PBS such that when the stock cell suspension was diluted 1:10, it would produce an Absorbance at 660 nm of between 0.22-0.24, equivalent to an initial Absorbance of 2.2-2.4. The cells were stored on ice for use during the day, but warmed to ambient temperature before initiation of coaggregation. Residual cells were stored for further use by resuspension in a solution of 50% glycerol in water, and stored at 4° C. On the day of use, the cells were then collected by centrifugation, washed twice with PBS, and the trubidity adjusted as described above.
Assays were performed in a final volume of 1.0 ml in 190×75 mm disposable culture tubes, in duplicate. Controls consisted of 0.8 ml of either cell suspension, and 0.2 ml PBS. The coaggregating mixtures contained 0.4 ml of each cell suspension, and PBS to make 1.0 ml. Inhibitors were added from stock solutions to give the desired final concentrations, and, where necessary, the salt concentrations adjusted using a double-strength (2X) PBS solution. The mixtures were mixed on a Vortex mixer for 10 seconds at a speed setting of 6, incubated at ambient temperature for 10 minutes, vortexed again, and allowed to stand for 2 hours. […]

[1] = average of two independent experiments

## Agar [reference compound]
[1]
  Concentration to effect 50% inhibition of coaggregation: > 0.2%
  Inhibition of coaggregation (in words): did not demonstrate inhibition

## Soluble starch [reference compound]
At 1.0%, average of two independent experiments
  Inhibition of coaggregation at 1.0%: 8%
  Inhibition of coaggregation (in words): poor inhibition

## O=C(O)[C@H](O)[C@@H](O)[C@H](O[C@@H]1O[C@H](CO)[C@H](O)[C@H](O)[C@H]1O)[C@H](O)CO [Lactobionic acid, 4-[beta-D-galactosido]-D-gluconic acid]
Actinomyces viscosus, 2 h
  IC50: 3 to 4 mM
  Rebound of coaggregation on increasing concentration: then rebounds
Listed as lactobionic acid
  Rebound of coaggregation on increasing concentration: rebound effect
Concentration increased up to 100 mM
  Inhibition of coaggregation at the higher concentration: 10%

## OC[C@H]1O[C@@H](O[C@@H]2[C@@H](CO)OC(O)(CO)[C@H]2O)[C@H](O)[C@@H](O)[C@H]1O (mixture of isomers) [Lactulose, reference compound]
Actinomyces viscosus, 2 h
  IC50: 35 mM

## Chondroitin sulfate
At 4%
  Inhibition of coaggregation at 4%: ~50%
[1]
  Concentration to effect 50% inhibition of coaggregation: 4%
  Inhibition of coaggregation (in words): substantial inhibition

## Sodium alginate
At 0.5%, average of two independent experiments
  Inhibition of coaggregation at 0.5%: 32%
  Inhibition of coaggregation (in words): substantial inhibition

## OC[C@H]1O[C@H](O[C@H]2O[C@H](CO)[C@@H](O)[C@H](O)[C@H]2O)[C@H](O)[C@@H](O)[C@@H]1O [Trehalose, reference compound]
Actinomyces viscosus, 2 h
  IC50: > 100 mM

## Guar gum
[1]
  Concentration to effect 50% inhibition of coaggregation: 0.15%

## O=C[C@H](O)[C@@H](O)[C@H](O)[C@H](O)CO [Glucose, reference compound]
Actinomyces viscosus, 2 h
  IC50: > 100 mM

## OC[C@H]1O[C@@](CO)(O[C@H]2O[C@H](CO)[C@@H](O)[C@H](O)[C@H]2O)[C@@H](O)[C@@H]1O [Sucrose, reference compound]
Actinomyces viscosus, 2 h
  IC50: > 100 mM

## O=C[C@H](O)[C@@H](O)[C@H](O)[C@H](O)C(=O)O [Glucuronic acid]
Actinomyces viscosus, 2 h
  IC50: 15 mM
  Rebound of coaggregation on increasing concentration: then rebounds

## N[C@H]1C(O)O[C@H](CO)[C@H](O)[C@@H]1O (stereo partly shown) [Galactoseamine, reference compound]
Table 1 carbohydrates, 2 hours, ambient temperature, average of independent experiments in duplicate (lactose n=13, galactose n=6)
  IC50: 35 mM

## OC[C@H]1O[C@H](O[C@H]2[C@H](O)[C@@H](O)[C@H](O)O[C@@H]2CO)[C@H](O)[C@@H](O)[C@@H]1O [Maltose, reference compound]
Actinomyces viscosus, 2 h
  IC50: > 100 mM

## OC[C@H]1OC(O)C[C@@H](O)[C@H]1O (stereo partly drawn) [2-deoxy-D-galactose, reference compound]
Actinomyces viscosus, 2 h
  IC50: 20 mM

## Agarose [reference compound]
[1]
  Concentration to effect 50% inhibition of coaggregation: > 0.2%
  Inhibition of coaggregation (in words): did not demonstrate inhibition

## Pectin
At 0.8%
  Inhibition of coaggregation at 0.8%: ~50%
[1]
  Concentration to effect 50% inhibition of coaggregation: 0.8%
  Inhibition of coaggregation (in words): substantial inhibition

## C[C@H]1OC(O)[C@H](O)[C@@H](O)[C@H]1O (stereo partly drawn) [D-Fructose (6-deoxy-D-galactose), 6-deoxy-D-galactose, reference compound]
Actinomyces viscosus, 2 h
  IC50: 20 mM

## Polygalacturonic acid
[1]
  Concentration to effect 50% inhibition of coaggregation: 0.1%

## O=C[C@H](O)[C@@H](O)[C@@H](O)[C@H](O)CO [Galactose, reference compound]
Actinomyces viscosus, 2 h
  IC50: 22 mM

## OC[C@H]1O[C@@H](O[C@H]2[C@H](O)[C@@H](O)C(O)O[C@@H]2CO)[C@H](O)[C@@H](O)[C@H]1O (stereo partly shown) [Lactose, reference compound]
Actinomyces viscosus, 2 h
  IC50: 3.6 mM

## Xanthan gum
[1]
  Concentration to effect 50% inhibition of coaggregation: 0.05%

## O=C[C@@H](O)[C@@H](O)[C@H](O)[C@H](O)CO [Mannose, reference compound]
Actinomyces viscosus, 2 h
  IC50: > 100 mM
